Measured values as given in US8754115B2, “Fungicidal pyrazoles” (E I du Pont de Nemours and Company, priority 2010, dated 2014).
Marks after values point to notes of the source that are not given here.

Tests used:
Type in all cases: in vivo
[1] = tested on: Septoria nodorum; assay: Test C: preventive spray on wheat seedlings, visual disease rating (Septoria glume blotch)
Description: (§1) General protocol for preparing test suspensions for Tests A-F: the test compounds were first dissolved in acetone in an amount equal to 3% of the final volume and then suspended at the desired concentration (in ppm) in acetone and purified water (50/50 mix by volume) containing 250 ppm of the surfactant Trem® 014 (polyhydric alcohol esters). The resulting test suspensions were then used in Tests A-F. Spraying a 200 ppm test suspension to the point of run-off on the test plants was the equivalent of a rate of 800 g/ha. Unless otherwise indicated, the rating values indicate a 200 ppm test suspension was used. (An asterisk “*” next to the rating value indicates a 40 ppm test suspension was used.)
(§2) The test suspension was sprayed to the point of run-off on wheat seedlings. The following day the seedlings were inoculated with a spore suspension of Septoria nodorum (the causal agent of Septoria glume blotch) and incubated in a saturated atmosphere at 24° C. for 48 h, and then moved to a growth chamber at 20° C. for 6 days, after which time visual disease ratings were made.
(§3) Results for Tests A-F are given in Table A. In the Table, a rating of 100 indicates 100% disease control and a rating of 0 indicates no disease control (relative to the controls). A dash (-) indicates no test results. An asterisk “*” next to the rating value indicates a 40 ppm test suspension was used.

[2] = tested on: Alternaria solani; assay: Test B: preventive spray on tomato seedlings, visual disease rating (tomato early blight)
Description: as §1
as §2, with “tomato” for “wheat”, “Alternaria solani” for “Septoria nodorum”, “tomato early blight)” for “Septoria glume blotch)”, “27°” for “24°”, “5” for “6”
as §3

[3] = tested on: Blumeria graminis f. sp. tritici; assay: Test F: preventive spray on wheat seedlings, visual disease rating (wheat powdery mildew)
Description: as §1
The test suspension was sprayed to the point of run-off on wheat seedlings. The following day the seedlings were inoculated with a spore dust of Blumeria graminis f. sp. tritici, (also known as Erysiphe graminis f. sp. tritici, the causal agent of wheat powdery mildew) and incubated in a growth chamber at 20° C. for 8 days, after which time visual disease ratings were made.
as §3

[4] = tested on: Puccinia recondite f. sp. tritici; assay: Test E2: preventive spray on wheat seedlings, visual disease rating (wheat leaf rust)
Description: as §1
as §2, with “Puccinia recondite f. sp. tritici” for “Septoria nodorum”, “wheat leaf rust)” for “Septoria glume blotch)”, “20°” for “24°”, “24” for “48”, “7” for “6”
as §3

[5] = tested on: Septoria tritici; assay: Test D: preventive spray on wheat seedlings, visual disease rating (wheat leaf blotch)
Description: as §1
as §2, with “tritici” for “nodorum”, “wheat leaf” for “Septoria glume”, “in” for “in a”, “19” for “6”
as §3

[6] = tested on: Puccinia recondite f. sp. tritici; assay: Test E1: curative spray on wheat seedlings after inoculation, visual disease rating (wheat leaf rust)
Description: as §1
Wheat seedlings were inoculated with a spore suspension of Puccinia recondite f. sp. tritici (the causal agent of wheat leaf rust) and incubated in a saturated atmosphere at 20° C. for 24 h, and then moved to a growth chamber at 20° C. for 2 days. After 2 days, the test suspension was sprayed to the point of run-off on the wheat seedlings, and then the seedlings were moved back to the growth chamber at 20° C. for 6 days. Upon removal, visual disease ratings were made.
as §3

[7] = tested on: Botrytis cinerea; assay: Test A: preventive spray on tomato seedlings, visual disease rating (tomato Botrytis)
Description: as §1
The test suspension was sprayed to the point of run-off on tomato seedlings. The following day the seedlings were inoculated with a spore suspension of Botrytis cinerea (the causal agent of tomato Botrytis) and incubated in saturated atmosphere at 20° C. for 48 h, and then moved to a growth chamber at 24° C. for 3 days, after which time visual disease ratings were made.
as §3

[8] = no asterisk: standard test suspension, not 40 ppm
[9] = asterisk: 40 ppm test suspension
[10] = no asterisk: standard test suspension, not 40 ppm, 100 = 100% disease control, 0 = none

SMILES	Test C rating (% disease control) [1, 8] [%]	Test B rating (% disease control) [2, 8] [%]	Test F rating (% disease control) [3, 8] [%]	Test E2 rating (% disease control) [4, 8] [%]	Test D rating (% disease control) [5, 8] [%]	Test E1 rating (% disease control) [6, 8] [%]	Test C rating (% disease control) [1, 9]	Test B rating (% disease control) [2, 9]	Test F rating (% disease control) [3, 9]	Test E2 rating (% disease control) [4, 9]	Test D rating (% disease control) [5, 9]	Test A rating (% disease control) [7, 9]	Test A rating (% disease control) [7, 10] [%]	Test E1 rating (% disease control) [6, 9]
Cc1nn(C)c(-c2c(Cl)cccc2Cl)c1C(O)c1ccc(Cl)cc1 (centres unmarked) [compound 77]	0	93	89	79	99	0	–	–	–	–	–	–	–	–
Cc1nn(C)c(-c2ccc(F)cc2Cl)c1Nc1ccc(F)cc1F [compound 49]	–	–	–	–	–	–	0* %	0* %	87* %	74* %	96* %	100* %	–	–
Cc1nn(C)c(-c2ccc(Cl)cc2Cl)c1C(=O)c1ccc(F)cc1F [compound 89]	0	0	100	89	93	0	–	–	–	–	–	–	–	–
Cc1nn(C)c(-c2c(Cl)cncc2Cl)c1C(=O)c1ccc(F)cc1Cl [compound 96]	–	–	–	–	–	–	0* %	0* %	26* %	0* %	0* %	60* %	–	–
Cc1nn(C)c(-c2c(Cl)cccc2Cl)c1C(O)c1c(F)cc(F)cc1F (centres unmarked) [compound 70]	60	99	99	100	100	94	–	–	–	–	–	–	–	–
Cc1nn(C)c(-c2c(F)cccc2Cl)c1C(O)c1ccc(F)cc1Br (centres unmarked) [compound 37]	100	99	100	100	100	–	–	–	–	–	–	–	100	–
Cc1nn(C)c(-c2c(Cl)cccc2Cl)c1C(O)c1ccc(F)cc1F (centres unmarked) [compound 74]	92	100	98	99	99	0	–	–	–	–	–	–	–	–
Cn1nc(OC(F)F)c(C(O)c2ccc(F)cc2Cl)c1-c1c(F)cccc1F (centres unmarked) [compound 128]	–	–	–	–	–	–	0* %	–	56* %	85* %	100* %	43* %	–	–
Cc1nn(C)c(-c2ccccc2I)c1C(O)c1ccc(F)cc1Br (centres unmarked) [compound 88]	0	0	89	68	99	0	–	–	–	–	–	–	–	–
Cc1nn(C)c(-c2c(F)cccc2Cl)c1C(F)c1c(F)cc(F)cc1F (centres unmarked) [Compound 75]	–	–	–	–	–	–	87* %	100* %	99* %	100* %	100* %	–	–	74* %
Cc1nn(C)c(-c2ccc(F)cc2Br)c1C(O)c1ccc(F)cc1F (centres unmarked) [compound 76]	60	99	100	100	100	99	–	–	–	–	–	–	–	–
COc1nn(C)c(-c2c(F)cc(F)cc2Cl)c1C(O)c1ccc(F)cc1Cl (centres unmarked) [compound 141]	–	–	–	–	–	–	97* %	–	99* %	99* %	100* %	100* %	–	–
COc1nn(C)c(-c2c(F)cccc2Cl)c1C(O)c1c(F)ccc(F)c1F (centres unmarked) [compound 145]	–	–	–	–	–	–	0* %	–	73* %	82* %	35* %	26* %	–	–
Cn1nc(Br)c(C(=O)c2ccc(F)cc2F)c1-c1ccc(F)cc1Cl [compound 48]	0	0	0	0	99	–	–	–	–	–	–	–	26	–
COc1nn(C)c(-c2c(F)cccc2Cl)c1C(O)c1c(F)ccc(F)c1Cl (centres unmarked) [compound 144]	–	–	–	–	–	–	0* %	–	98* %	100* %	100* %	78* %	–	–
Cc1nn(C)c(-c2ccccc2I)c1C(=O)c1ccc(F)cc1Br [compound 81]	0	46	99	0	0	–	–	–	–	–	–	–	54	–
COc1ccc(C(O)c2c(OC)nn(C)c2-c2c(F)cccc2Cl)c(F)c1 (centres unmarked) [compound 143]	–	–	–	–	–	–	0* %	–	98* %	99* %	100* %	100* %	–	–
COc1nn(C)c(-c2c(F)cccc2Cl)c1C(O)c1ccc(F)cc1C (centres unmarked) [compound 140]	–	–	–	–	–	–	99* %	–	100* %	99* %	100* %	100* %	–	–
Cc1nn(C)c(-c2c(F)cccc2F)c1C(SC#N)c1ccc(F)cc1Cl (centres unmarked) [Compound 111]	–	–	100	100	100	–	–	–	–	–	–	–	100	–
C=CCOC(c1ccc(F)cc1Cl)c1c(C)nn(C)c1-c1c(F)cccc1F (centres unmarked) [Compound 109]	–	–	–	–	–	–	–	–	97* %	98* %	100* %	0* %	–	–
COc1ccc(C(O)c2c(OC)nn(C)c2-c2c(F)cccc2Cl)c(Cl)c1 (centres unmarked) [compound 142]	–	–	–	–	–	–	60* %	–	100* %	100* %	100* %	100* %	–	–
COc1nn(C)c(-c2c(F)cccc2F)c1C(O)c1ccc(F)cc1F (centres unmarked) [compound 156]	–	–	–	–	–	–	–	–	99* %	99* %	100* %	100* %	–	–
CC(=O)OC(c1ccc(F)cc1Cl)c1c(C)nn(C)c1-c1c(F)cccc1F (centres unmarked) [Compound 108]	–	–	–	–	–	–	–	–	100* %	100* %	100* %	99* %	–	–
Cc1nn(C)c(-c2c(F)cccc2F)c1C(SC#N)c1c(F)cc(F)cc1F (centres unmarked) [Compound 116]	–	–	–	–	–	–	–	–	0* %	9* %	78* %	0* %	–	–
Cc1nn(C)c(-c2c(F)cccc2Cl)c1C(SC#N)c1ccc(F)cc1Cl (centres unmarked) [Compound 121]	–	–	–	–	–	–	–	–	100* %	100* %	100* %	97* %	–	–
